In the NIST ThermoML archive (doi:10.1021/je500696p):

Assays:
[1] = xn = mol fraction of the nth substance listed; conditions: 100 kPa, Liquid, Vibrating tube method
[2] = excess molar enthalpy (molar enthalpy of mixing); xn = mol fraction of the nth substance listed; conditions: 100 kPa, Liquid, Calvet calorimetry

CCCC[N+](C)(C)C.O=S(=O)([N-]S(=O)(=O)C(F)(F)F)C(F)(F)F [butyltrimethylammonium bis(trifluoromethylsulfonyl)imide] + CCCO
Conditions | excess molar enthalpy [kcal/mol] | mass density [kg/m3]
[1], 293.15 K, x2 = 0 | – | 1397.1
[1], 293.15 K, x2 = 0.1273 | – | 1375
[1], 293.15 K, x2 = 0.2596 | – | 1346.9
[1], 293.15 K, x2 = 0.3787 | – | 1315
[1], 293.15 K, x2 = 0.4996 | – | 1273.9
[1], 293.15 K, x2 = 0.6368 | – | 1210.1
[1], 293.15 K, x2 = 0.7624 | – | 1126
[1], 293.15 K, x2 = 0.8787 | – | 1008.7
[1], 293.15 K, x2 = 0.9498 | – | 903.9
[1], 293.15 K, x2 = 0.9799 | – | 847.3
[1], 295.15 K, x2 = 0 | – | 1395.3
[1], 295.15 K, x2 = 0.1273 | – | 1373.2
[1], 295.15 K, x2 = 0.2596 | – | 1345.1
[1], 295.15 K, x2 = 0.3787 | – | 1313.2
[1], 295.15 K, x2 = 0.4996 | – | 1272.1
[1], 295.15 K, x2 = 0.6368 | – | 1208.3
[1], 295.15 K, x2 = 0.7624 | – | 1124.2
[1], 295.15 K, x2 = 0.8787 | – | 1006.9
[1], 295.15 K, x2 = 0.9498 | – | 902.2
[1], 295.15 K, x2 = 0.9799 | – | 845.7
[1], 298.15 K, x2 = 0 | – | 1392.7
[1], 298.15 K, x2 = 0.1273 | – | 1370.6
[1], 298.15 K, x2 = 0.2596 | – | 1342.4
[1], 298.15 K, x2 = 0.3787 | – | 1310.6
[1], 298.15 K, x2 = 0.4996 | – | 1269.4
[1], 298.15 K, x2 = 0.6368 | – | 1205.6
[1], 298.15 K, x2 = 0.7624 | – | 1121.4
[1], 298.15 K, x2 = 0.8787 | – | 1004.3
[1], 298.15 K, x2 = 0.9498 | – | 899.7
[1], 298.15 K, x2 = 0.9799 | – | 843.2
[1], 303.15 K, x2 = 0 | – | 1388.3
[1], 303.15 K, x2 = 0.1273 | – | 1366.2
[1], 303.15 K, x2 = 0.2596 | – | 1338
[1], 303.15 K, x2 = 0.3787 | – | 1306.1
[1], 303.15 K, x2 = 0.4996 | – | 1264.9
[1], 303.15 K, x2 = 0.6368 | – | 1201.1
[1], 303.15 K, x2 = 0.7624 | – | 1117
[1], 303.15 K, x2 = 0.8787 | – | 999.9
[1], 303.15 K, x2 = 0.9498 | – | 895.5
[1], 303.15 K, x2 = 0.9799 | – | 839.1
[1], 308.15 K, x2 = 0 | – | 1384
[1], 308.15 K, x2 = 0.1273 | – | 1361.8
[1], 308.15 K, x2 = 0.2596 | – | 1333.5
[1], 308.15 K, x2 = 0.3787 | – | 1301.6
[1], 308.15 K, x2 = 0.4996 | – | 1260.4
[1], 308.15 K, x2 = 0.6368 | – | 1196.5
[1], 308.15 K, x2 = 0.7624 | – | 1112.5
[1], 308.15 K, x2 = 0.8787 | – | 995.5
[1], 308.15 K, x2 = 0.9498 | – | 891.2
[1], 308.15 K, x2 = 0.9799 | – | 835
[1], 313.15 K, x2 = 0 | – | 1379.6
[1], 313.15 K, x2 = 0.1273 | – | 1357.4
[1], 313.15 K, x2 = 0.2596 | – | 1329.1
[1], 313.15 K, x2 = 0.3787 | – | 1297.2
[1], 313.15 K, x2 = 0.4996 | – | 1255.9
[1], 313.15 K, x2 = 0.6368 | – | 1192
[1], 313.15 K, x2 = 0.7624 | – | 1107.9
[1], 313.15 K, x2 = 0.8787 | – | 991.1
[1], 313.15 K, x2 = 0.9498 | – | 887
[1], 313.15 K, x2 = 0.9799 | – | 830.8
[1], 318.15 K, x2 = 0 | – | 1375.2
[1], 318.15 K, x2 = 0.1273 | – | 1353
[1], 318.15 K, x2 = 0.2596 | – | 1324.7
[1], 318.15 K, x2 = 0.3787 | – | 1292.7
[1], 318.15 K, x2 = 0.4996 | – | 1251.4
[1], 318.15 K, x2 = 0.6368 | – | 1187.4
[1], 318.15 K, x2 = 0.7624 | – | 1103.4
[1], 318.15 K, x2 = 0.8787 | – | 986.7
[1], 318.15 K, x2 = 0.9498 | – | 882.6
[1], 318.15 K, x2 = 0.9799 | – | 826.6
[1], 323.15 K, x2 = 0 | – | 1370.9
[1], 323.15 K, x2 = 0.1273 | – | 1348.6
[1], 323.15 K, x2 = 0.2596 | – | 1320.3
[1], 323.15 K, x2 = 0.3787 | – | 1288.2
[1], 323.15 K, x2 = 0.4996 | – | 1246.9
[1], 323.15 K, x2 = 0.6368 | – | 1182.9
[1], 323.15 K, x2 = 0.7624 | – | 1098.8
[1], 323.15 K, x2 = 0.8787 | – | 982.2
[1], 323.15 K, x2 = 0.9498 | – | 878.3
[1], 323.15 K, x2 = 0.9799 | – | 822.4
[1], 328.15 K, x2 = 0 | – | 1366.6
[1], 328.15 K, x2 = 0.1273 | – | 1344.3
[1], 328.15 K, x2 = 0.2596 | – | 1315.9
[1], 328.15 K, x2 = 0.3787 | – | 1283.8
[1], 328.15 K, x2 = 0.4996 | – | 1242.4
[1], 328.15 K, x2 = 0.6368 | – | 1178.3
[1], 328.15 K, x2 = 0.7624 | – | 1094.3
[1], 328.15 K, x2 = 0.8787 | – | 977.7
[1], 328.15 K, x2 = 0.9498 | – | 873.9
[1], 328.15 K, x2 = 0.9799 | – | 818
[1], 333.15 K, x2 = 0 | – | 1362.3
[1], 333.15 K, x2 = 0.1273 | – | 1339.9
[1], 333.15 K, x2 = 0.2596 | – | 1311.5
[1], 333.15 K, x2 = 0.3787 | – | 1279.4
[1], 333.15 K, x2 = 0.4996 | – | 1237.9
[1], 333.15 K, x2 = 0.6368 | – | 1173.8
[1], 333.15 K, x2 = 0.7624 | – | 1089.7
[1], 333.15 K, x2 = 0.8787 | – | 973.1
[1], 333.15 K, x2 = 0.9498 | – | 869.5
[1], 333.15 K, x2 = 0.9799 | – | 813.7
[2], 308.15 K, x2 = 0.1224 | 0.223 | –
[2], 308.15 K, x2 = 0.2622 | 0.436 | –
[2], 308.15 K, x2 = 0.2665 | 0.442 | –
[2], 308.15 K, x2 = 0.374 | 0.556 | –
[2], 308.15 K, x2 = 0.4927 | 0.622 | –
[2], 308.15 K, x2 = 0.5007 | 0.623 | –
[2], 308.15 K, x2 = 0.5108 | 0.627 | –
[2], 308.15 K, x2 = 0.5118 | 0.63 | –
[2], 308.15 K, x2 = 0.6191 | 0.606 | –
[2], 308.15 K, x2 = 0.744 | 0.532 | –
[2], 308.15 K, x2 = 0.7466 | 0.533 | –
[2], 308.15 K, x2 = 0.7505 | 0.521 | –
[2], 308.15 K, x2 = 0.8709 | 0.354 | –
[2], 313.15 K, x2 = 0.113 | 0.187 | –
[2], 313.15 K, x2 = 0.2393 | 0.374 | –
[2], 313.15 K, x2 = 0.2549 | 0.385 | –
[2], 313.15 K, x2 = 0.3933 | 0.518 | –
[2], 313.15 K, x2 = 0.4936 | 0.569 | –
[2], 313.15 K, x2 = 0.4959 | 0.567 | –
[2], 313.15 K, x2 = 0.499 | 0.568 | –
[2], 313.15 K, x2 = 0.6245 | 0.564 | –
[2], 313.15 K, x2 = 0.7406 | 0.507 | –
[2], 313.15 K, x2 = 0.8666 | 0.369 | –
[2], 323.15 K, x2 = 0.1187 | 0.185 | –
[2], 323.15 K, x2 = 0.2569 | 0.406 | –
[2], 323.15 K, x2 = 0.2694 | 0.422 | –
[2], 323.15 K, x2 = 0.3969 | 0.538 | –
[2], 323.15 K, x2 = 0.527 | 0.6 | –
[2], 323.15 K, x2 = 0.5431 | 0.611 | –
[2], 323.15 K, x2 = 0.6214 | 0.598 | –
[2], 323.15 K, x2 = 0.7499 | 0.548 | –
[2], 323.15 K, x2 = 0.8707 | 0.413 | –
